# Experimental data: patent US9040518B2, “Chemical compounds” (GlaxoSmithKline LLC, priority 2010, dated 2015)
# Structures can show the parent of a compound that is named as a salt.
# Target: ileal bile acid cotransporter (iBAT) (Homo sapiens (Human), UniProt Q12908)
# Assay: Human iBAT inhibition: [3H]-taurocholate uptake into HEK293 cells expressing human iBAT
# Assay type: cell-based
# Conditions: HEK293 cells transduced with human iBAT Bacmam virus, 90 minutes at ambient temperature, mean of at least 2 datapoints
# Method: Method for Determination of Human iBAT Inhibition:
# In preparation for measurement of bile acid uptake into cells expressing the ileal bile acid cotransporter (iBAT), HEK293 cells were cultured in DMEM/F12 supplemented with 10% FBS. Twenty four hours prior to running an experiment, cells were harvested when at a confluence of 80-90%. Cells were seeded in poly-d-lysine coated plates at 50,000 cells per well, and human iBAT Bacmam virus was added such that each well contains 3.67×10e6 pfu (73.4pfu/cell). Each assay plate was covered with Breathe Easy Seal and placed in an incubator for 24 hours to allow expression of the transporter.
# On the day of the uptake experiment, 10 mM HEPES was added to Hank's Balanced Salt Solution, and the pH was adjusted to 7.4 with TRIS (HBSSH). The assay buffer was prepared by adding […] [^3H]-taurocholate and 10 μM cold taurocholate to room temperature HBSSH. A separate washing buffer was prepared by adding 10 μM cold taurocholate to HBSSH (˜30 ml per assay plate) and placed on ice. Using 100% DMSO, 8 point, 3-fold dilution curves for each test compound was prepared starting at 200 μM. Similarly, an 8 point dose response curve was prepared of the control compound [(3R,5R)-3-butyl-3-ethyl-7,8-bis(methyloxy)-5-phenyl-2,3,4,5-tetrahydro-1,4-benzothiazepine 1,1-dioxide (Brieaddy, L. E. WO9605188, 1996)] starting at 1.8 mM. Drug plates were created by adding 3 μL of each concentration to a v-bottom 96-well plate then diluted 60-fold with 177 μL of assay buffer. Plates were removed from the incubator and allowed to cool to ambient temperature. Media was aspirated, and wells were washed once with 300 μL HBSSH. 50 μL of each dose response curve concentration was added in triplicate by column to the assay plates, reserving column 10 for control (assay buffer+1.67% DMSO) and columns 11 and 12 for the control compound. Plates were incubated at ambient temperature for 90 minutes then the plates were aspirated then washed 1× with 300 μL of wash buffer. 220 μL of Microscint 20 was added to each well, and the plates were sealed. The amount of [^3H]-taurocholate in cell lysate was quantitated using a microplate scintillation counter on the following day.
# IC50's can be generated using the formula, y=(Vmax*x^n)/(K^n+x^n).
# Chain of ileal bile acid cotransporter (iBAT) (Q12908 whole entry): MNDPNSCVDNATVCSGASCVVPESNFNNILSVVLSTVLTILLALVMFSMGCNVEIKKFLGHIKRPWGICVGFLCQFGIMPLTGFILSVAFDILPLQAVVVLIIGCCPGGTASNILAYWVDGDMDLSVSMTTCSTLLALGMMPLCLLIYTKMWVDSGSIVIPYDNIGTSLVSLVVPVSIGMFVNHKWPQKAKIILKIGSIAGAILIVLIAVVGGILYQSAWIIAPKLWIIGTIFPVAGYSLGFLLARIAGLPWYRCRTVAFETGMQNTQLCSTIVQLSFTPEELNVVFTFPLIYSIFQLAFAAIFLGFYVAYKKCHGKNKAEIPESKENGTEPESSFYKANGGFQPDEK
row,SMILES,IC50
1,"CCCC[C@]1(CC)CS(=O)(=O)c2cc(CN(C)CC(=O)O)c(OC)cc2[C@@H](c2ccccc2)N1 [Example 49, N-{[(3R,5R)-3-butyl-3-ethyl-7-(methyloxy)-1,1-dioxido-5-phenyl-2,3,4,5-tetrahydro-1,4-benzothiazepin-8-yl]methyl}-N-methylglycine ammonium salt]",41 nM
2,"CCCC[C@]1(CC)CS(=O)(=O)c2cc(CNC(CC(=O)O)CC(=O)O)c(OC)cc2[C@@H](c2ccccc2)N1O [Example 50, 3-({[(3R,5R)-3-butyl-3-ethyl-4-hydroxy-7-(methyloxy)-1,1-dioxido-5-phenyl-2,3,4,5-tetrahydro-1,4-benzothiazepin-8-yl]methyl}amino)pentanedioic acid trifluoroacetate salt]",51 nM
3,"CCCC[C@]1(CC)CS(=O)(=O)c2cc(CCP(=O)(O)O)c(OC)cc2[C@@H](c2ccccc2)N1 [Example 51, {2-[(3R,5R)-3-butyl-3-ethyl-7-(methyloxy)-1,1-dioxido-5-phenyl-2,3,4,5-tetrahydro-1,4-benzothiazepin-8-yl]ethyl}phosphonic acid bis-ammonium salt]",51 nM
4,"CCCC[C@]1(CC)CS(=O)(=O)c2cc(CN[C@@H](CO)C(=O)O)c(OC)cc2[C@@H](c2ccccc2)N1 [Example 52, N-{[(3R,5R)-3-butyl-3-ethyl-7-(methyloxy)-1,1-dioxido-5-phenyl-2,3,4,5-tetrahydro-1,4-benzothiazepin-8-yl]methyl}-L-serine bis-ammonium salt]",59 nM
5,"CCCC[C@]1(CC)CS(=O)(=O)c2cc(CN[C@@H](CSSC[C@H](N)C(=O)O)C(=O)O)c(OC)cc2[C@@H](c2ccccc2)N1 [Example 53, N-{[(3R,5R)-3-butyl-3-ethyl-7-(methyloxy)-1,1-dioxido-5-phenyl-2,3,4,5-tetrahydro-1,4-benzothiazepin-8-yl]methyl}-L-cystine bis-ammonium salt]",67 nM
6,"CCCC[C@]1(CC)CS(=O)(=O)c2cc(CP(=O)(O)O)c(OC)cc2[C@@H](c2ccccc2)N1O [Example 54, {[(3R,5R)-3-butyl-3-ethyl-4-hydroxy-7-(methyloxy)-1,1-dioxido-5-phenyl-2,3,4,5-tetrahydro-1,4-benzothiazepin-8-yl]methyl}phosphonic acid]",124 nM
7,"CCCC[C@]1(CC)CS(=O)(=O)c2cc(/C=C/P(=O)(O)O)c(OC)cc2[C@@H](c2ccccc2)N1 [Example 55, {(E)-2-[(3R,5R)-3-butyl-3-ethyl-7-(methyloxy)-1,1-dioxido-5-phenyl-2,3,4,5-tetrahydro-1,4-benzothiazepin-8-yl]ethenyl}phosphonic acid bis-ammonium salt]",131 nM
8,"CCCC[C@]1(CC)CS(=O)(=O)c2cc(CN[C@H](C(=O)O)[C@@H](C)O)c(OC)cc2[C@@H](c2ccccc2)N1 [Example 56, N-{[(3R,5R)-3-butyl-3-ethyl-7-(methyloxy)-1,1-dioxido-5-phenyl-2,3,4,5-tetrahydro-1,4-benzothiazepin-8-yl]methyl}-L-threonine ammonium salt]",425 nM
9,"CCCC[C@]1(CC)CS(=O)(=O)c2cc(CN3CCC[C@@H]3C(=O)O)c(OC)cc2[C@@H](c2ccccc2)N1 [Example 57, 1-{[(3R,5R)-3-butyl-3-ethyl-7-(methyloxy)-1,1-dioxido-5-phenyl-2,3,4,5-tetrahydro-1,4-benzothiazepin-8-yl]methyl}-D-proline ammonium salt]",751 nM
10,"CCCC[C@]1(CC)CS(=O)(=O)c2cc(CN[C@@H](CCCCN)C(=O)O)c(OC)cc2[C@@H](c2ccccc2)N1 [Example 58, N^2-{[(3R,5R)-3-butyl-3-ethyl-7-(methyloxy)-1,1-dioxido-5-phenyl-2,3,4,5-tetrahydro-1,4-benzothiazepin-8-yl]methyl}-L-lysine ammonium salt]",1460 nM
11,"CCCC[C@]1(CC)CS(=O)(=O)c2cc(CN[C@@H](CCCCN(C)C)C(=O)O)c(OC)cc2[C@@H](c2ccccc2)N1 [Example 59, N^2-{[(3R,5R)-3-butyl-3-ethyl-7-(methyloxy)-1,1-dioxido-5-phenyl-2,3,4,5-tetrahydro-1,4-benzothiazepin-8-yl]methyl}-N^6,N^6-dimethyl-L-lysine ammonium salt]",3330 nM
12,"CCCC[C@]1(CC)CS(=O)(=O)c2cc(CN(CP(=O)(O)O)CP(=O)(O)O)c(OC)cc2[C@@H](c2ccccc2)N1 [Example 60, [({[(3R,5R)-3-butyl-3-ethyl-7-(methyloxy)-1,1-dioxido-5-phenyl-2,3,4,5-tetrahydro-1,4-benzothiazepin-8-yl]methyl}imino)dimethanediyl]bis(phosphonic acid) tetraammonium salt]",3330 nM
13,"CCCC[C@]1(CC)CS(=O)(=O)c2cc(CN(CP(=O)(O)O)CP(=O)(O)OCC)c(OC)cc2[C@@H](c2ccccc2)N1 [Example 61, [({[(3R,5R)-3-butyl-3-ethyl-7-(methyloxy)-1,1-dioxido-5-phenyl-2,3,4,5-tetrahydro-1,4-benzothiazepin-8-yl]methyl}{[(ethyloxy)(hydroxy)phosphoryl]methyl}amino)methyl]phosphonic acid triammonium salt]",3360 nM
14,"CCCC[C@]1(CC)CS(=O)(=O)c2cc(CNCP(=O)(O)O)c(OC)cc2[C@@H](c2ccccc2)N1 [Example 62, [({[(3R,5R)-3-butyl-3-ethyl-7-(methyloxy)-1,1-dioxido-5-phenyl-2,3,4,5-tetrahydro-1,4-benzothiazepin-8-yl]methyl}amino)methyl]phosphonic acid trifluoroacetate salt]",3900 nM
15,"CCCC[C@]1(CC)CS(=O)(=O)c2cc(CNC(=O)C(=O)O)c(OC)cc2[C@@H](c2ccccc2)N1 [Example 64, ({[(3R,5R)-3-butyl-3-ethyl-7-(methyloxy)-1,1-dioxido-5-phenyl-2,3,4,5-tetrahydro-1,4-benzothiazepin-8-yl]methyl}amino)(oxo)acetic acid]",6 nM
16,"CCCCC1(CCCC)CS(=O)(=O)c2cc(CNC(CC(=O)O)CC(=O)O)c(OC)cc2C(c2ccccc2)N1 (stereo not drawn) [Example 65, 3-({[3,3-dibutyl-7-(methyloxy)-1,1-dioxido-5-phenyl-2,3,4,5-tetrahydro-1,4-benzothiazepin-8-yl]methyl}amino)pentanedioic acid trifluoroacetate salt]",337 nM
17,"CCCCC1(CCCC)CS(=O)(=O)c2cc(CNCC(=O)O)c(OC)cc2C(c2ccccc2)N1 (stereo not drawn) [Example 66, N-{[3,3-dibutyl-7-(methyloxy)-1,1-dioxido-5-phenyl-2,3,4,5-tetrahydro-1,4-benzothiazepin-8-yl]methyl}glycine trifluoroacetate salt]",21 nM
18,"CCCCC1(CCCC)CS(=O)(=O)c2cc(CP(=O)(O)O)c(OC)cc2C(c2ccccc2)N1 (stereo not drawn) [Example 67, {[3,3-dibutyl-7-(methyloxy)-1,1-dioxido-5-phenyl-2,3,4,5-tetrahydro-1,4-benzothiazepin-8-yl]methyl}phosphonic acid trifluoroacetate salt]",52 nM
19,"CCCC[C@]1(CC)CS(=O)(=O)c2cc(CNCC(=O)O)c(N(C)C)cc2[C@@H](c2ccccc2)N1 [Example 68, N-{[(3R,5R)-3-butyl-7-(dimethylamino)-3-ethyl-1,1-dioxido-5-phenyl-2,3,4,5-tetrahydro-1,4-benzothiazepin-8-yl]methyl}glycine trifluoroacetate salt]",1 nM
20,"CCCC[C@]1(CC)CS(=O)(=O)c2cc(CNC(CC(=O)O)CC(=O)O)c(N(C)C)cc2[C@@H](c2ccccc2)N1 [Example 69, 3-({[(3R,5R)-3-butyl-7-(dimethylamino)-3-ethyl-1,1-dioxido-5-phenyl-2,3,4,5-tetrahydro-1,4-benzothiazepin-8-yl]methyl}amino)pentanedioic acid bis-ammonium salt]",19 nM
21,"CCCC[C@]1(CC)CS(=O)(=O)c2cc(C(CC(=O)O)CC(=O)O)c(OC)cc2[C@@H](c2ccccc2)N1 [Example 72, 3-[(3R,5R)-3-butyl-3-ethyl-7-(methyloxy)-1,1-dioxido-5-phenyl-2,3,4,5-tetrahydro-1,4-benzothiazepin-8-yl]pentanedioic acid]",> 3000 nM
